ChEMBL document CHEMBL1137726, “Novel 4-aryl-pyrido[1,2-c]pyrimidines with dual SSRI and 5-HT1A activity, part 1” (Eur J Med Chem, 2009)
The source made the active and inactive calls. The rule behind the calls is not given here.

How the values were obtained:
[1] = target: T1, 5-hydroxytryptamine receptor 1A (Rattus norvegicus, UniProt P19327); assay: Displacement of [3H]8-OH-DPAT from 5HT1A receptor in rat brain membranes; format: cell membranes
T1 sequence (P19327 whole entry): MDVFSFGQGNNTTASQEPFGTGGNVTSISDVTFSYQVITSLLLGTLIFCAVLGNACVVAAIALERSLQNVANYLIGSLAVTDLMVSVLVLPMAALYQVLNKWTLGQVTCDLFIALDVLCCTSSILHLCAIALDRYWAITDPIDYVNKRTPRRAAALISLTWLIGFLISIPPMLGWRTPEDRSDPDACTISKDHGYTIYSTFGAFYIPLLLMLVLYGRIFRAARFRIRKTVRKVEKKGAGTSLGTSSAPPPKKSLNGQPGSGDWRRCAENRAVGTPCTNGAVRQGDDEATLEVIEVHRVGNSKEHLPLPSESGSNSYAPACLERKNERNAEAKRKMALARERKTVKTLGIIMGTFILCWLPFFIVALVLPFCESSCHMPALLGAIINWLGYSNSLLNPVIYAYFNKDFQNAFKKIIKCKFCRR

[2] = target: Sodium-dependent serotonin transporter (Rattus norvegicus, UniProt P31652); assay: Displacement of [3H]citalopram from 5HTT in rat brain membranes; format: cell membranes
Mus musculus [3] = assay: Induction of hypothermia in Albino Swiss mouse assessed as change in body temperature pretreated for 30 mins at 20 mg/kg, ip measured 60 mins after drug dose; format: functional, organism-based; set-up: dose 20 mg/kg
Mus musculus [4] = assay: Induction of hypothermia in Albino Swiss mouse assessed as change in body temperature pretreated for 30 mins at 20 mg/kg, ip measured 30 mins after drug dose; format: functional, organism-based; set-up: dose 20 mg/kg
Mus musculus [5] = assay: Induction of hypothermia in Albino Swiss mouse assessed as change in body temperature pretreated for 30 mins at 10 mg/kg, ip measured 30 mins after drug dose; format: functional, organism-based; set-up: dose 10 mg/kg
Mus musculus [6] = assay: Induction of hypothermia in Albino Swiss mouse assessed as change in body temperature pretreated for 30 mins at 5 mg/kg, ip measured 120 mins after drug dose; format: functional, organism-based; set-up: dose 5 mg/kg
Mus musculus [7] = assay: Induction of hypothermia in Albino Swiss mouse assessed as change in body temperature pretreated for 30 mins at 10 mg/kg, ip measured 60 mins after drug dose; format: functional, organism-based; set-up: dose 10 mg/kg
Mus musculus [8] = assay: Induction of hypothermia in Albino Swiss mouse assessed as change in body temperature pretreated for 30 mins at 10 mg/kg, ip measured 90 mins after drug dose; format: functional, organism-based; set-up: dose 10 mg/kg
Mus musculus [9] = assay: Induction of hypothermia in Albino Swiss mouse assessed as change in body temperature pretreated for 30 mins at 20 mg/kg, ip measured 90 mins after drug dose; format: functional, organism-based; set-up: dose 20 mg/kg
Mus musculus [10] = assay: Induction of hypothermia in Albino Swiss mouse assessed as change in body temperature pretreated for 30 mins at 5 mg/kg, ip measured 90 mins after drug dose; format: functional, organism-based; set-up: dose 5 mg/kg
Mus musculus [11] = assay: Induction of hypothermia in 0.1 mg/kg WAY 100635 pretreated Albino Swiss mouse assessed as change in body temperature at 20 mg/kg, ip measured 60 mins after drug dose; format: functional, organism-based
Mus musculus [12] = assay: Induction of hypothermia in Albino Swiss mouse assessed as change in body temperature pretreated for 30 mins at 10 mg/kg, ip measured 120 mins after drug dose; format: functional, organism-based; set-up: dose 10 mg/kg
Mus musculus [13] = assay: Induction of hypothermia in Albino Swiss mouse assessed as change in body temperature pretreated for 30 mins at 5 mg/kg, ip measured 60 mins after drug dose; format: functional, organism-based; set-up: dose 5 mg/kg
Mus musculus [14] = assay: Induction of hypothermia in Albino Swiss mouse assessed as change in body temperature pretreated for 30 mins at 20 mg/kg, ip measured 120 mins after drug dose; format: functional, organism-based; set-up: dose 20 mg/kg
Mus musculus [15] = assay: Induction of hypothermia in Albino Swiss mouse assessed as change in body temperature pretreated for 30 mins at 5 mg/kg, ip measured 30 mins after drug dose; format: functional, organism-based; set-up: dose 5 mg/kg
Mus musculus [16] = assay: Induction of hypothermia in 0.1 mg/kg WAY 100635 pretreated Albino Swiss mouse assessed as change in body temperature at 20 mg/kg, ip measured 30 mins after drug dose; format: functional, organism-based
Mus musculus [17] = assay: Reduction of immobility time in Albino Swiss mouse at 10 mg/kg, ip pretreated for 30 mins by forced swimming test; format: functional; set-up: scale not given: the % may be the effect or the level left
Mus musculus [18] = assay: Effect on spontaneous locomotor activity in Albino Swiss mouse assessed as number of light-beam crossings in actiometers pretreated for 30 mins at 20 mg/kg, ip measured during 6 mins post drug dose; format: functional; conditions: route intraperitoneal
Mus musculus [19] = assay: Effect on spontaneous locomotor activity in Albino Swiss mouse assessed as number of light-beam crossings in actiometers pretreated for 30 mins at 20 mg/kg, ip measured during 30 mins post drug dose; format: functional; conditions: route intraperitoneal
Mus musculus [20] = assay: Reduction of immobility time in Albino Swiss mouse at 2 mg/kg, ip pretreated for 30 mins by forced swimming test; format: functional; set-up: scale not given: the % may be the effect or the level left; conditions: route intraperitoneal
Mus musculus [21] = assay: Reduction of immobility time in Albino Swiss mouse at 1 mg/kg, ip pretreated for 30 mins by forced swimming test; format: functional; set-up: scale not given: the % may be the effect or the level left; conditions: route intraperitoneal
Mus musculus [22] = assay: Reduction of immobility time in Albino Swiss mouse at 20 mg/kg, ip pretreated for 30 mins by forced swimming test; format: functional
Mus musculus [23] = assay: Inhibition of 8-OH-DPAT-induced hypothermia in Albino Swiss mouse assessed as change in body temperature at 20 mg/kg, ip; format: functional, organism-based; set-up: dose 20 mg/kg
Mus musculus [24] = species on record: Mus musculus; conditions: Albino Swiss, 10 mg/kg
Description: Induction of hypothermia in 0.1 mg/kg WAY 100635 pretreated Albino Swiss mouse assessed as change in body temperature at 10 mg/kg, ip measured 30 mins after drug dose

Mus musculus [25] = assay: Effect on spontaneous locomotor activity in Albino Swiss mouse assessed as number of light-beam crossings in actiometers pretreated for 30 mins at 10 mg/kg, ip measured during 30 mins post drug dose; format: functional; conditions: route intraperitoneal
Mus musculus [26] = species on record: Mus musculus; conditions: Albino Swiss, 10 mg/kg; remark: listed apart in the source
Description: Induction of hypothermia in 0.1 mg/kg WAY 100635 pretreated Albino Swiss mouse assessed as change in body temperature at 10 mg/kg, ip measured 60 mins after drug dose

Mus musculus [27] = assay: Effect on spontaneous locomotor activity in Albino Swiss mouse assessed as number of light-beam crossings in actiometers pretreated for 30 mins at 10 mg/kg, ip measured during 6 mins post drug dose; format: functional; conditions: route intraperitoneal
Mus musculus [28] = assay: Reduction of spontaneous locomotor activity in Albino Swiss mouse at 20 mg/kg, ip during 30 mins; format: functional, organism-based; set-up: dose 20 mg/kg
Mus musculus [29] = assay: Reduction of spontaneous locomotor activity in Albino Swiss mouse at 20 mg/kg, ip during 6 mins; format: functional, organism-based; set-up: dose 20 mg/kg

Sodium-dependent serotonin transporter, sequence (P31652 whole entry): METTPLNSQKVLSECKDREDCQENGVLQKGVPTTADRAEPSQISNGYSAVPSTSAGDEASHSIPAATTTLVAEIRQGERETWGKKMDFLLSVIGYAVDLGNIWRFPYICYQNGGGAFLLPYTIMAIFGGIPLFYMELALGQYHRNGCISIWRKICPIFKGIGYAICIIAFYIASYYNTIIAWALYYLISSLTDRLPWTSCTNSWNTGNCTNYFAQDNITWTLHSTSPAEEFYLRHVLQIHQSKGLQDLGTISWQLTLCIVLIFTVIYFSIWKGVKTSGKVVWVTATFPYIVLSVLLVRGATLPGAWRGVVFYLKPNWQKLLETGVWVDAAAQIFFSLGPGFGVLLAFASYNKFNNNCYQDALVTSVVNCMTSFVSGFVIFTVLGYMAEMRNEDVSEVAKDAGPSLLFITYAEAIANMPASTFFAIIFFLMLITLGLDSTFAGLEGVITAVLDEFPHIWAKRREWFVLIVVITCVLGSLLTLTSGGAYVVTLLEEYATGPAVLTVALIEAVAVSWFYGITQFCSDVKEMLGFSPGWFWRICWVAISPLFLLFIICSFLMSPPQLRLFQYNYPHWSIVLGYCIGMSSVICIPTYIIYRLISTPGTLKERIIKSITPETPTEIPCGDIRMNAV

SMILES	Ki [1] [nM]	Ki [2] [nM]	deltaT (Mus musculus [3]) [°C]	deltaT (Mus musculus [4]) [°C]	deltaT (Mus musculus [5]) [°C]	deltaT (Mus musculus [6]) [°C]	deltaT (Mus musculus [7]) [°C]	deltaT (Mus musculus [8]) [°C]	deltaT (Mus musculus [9]) [°C]	deltaT (Mus musculus [10]) [°C]	deltaT (Mus musculus [11]) [°C]	deltaT (Mus musculus [12]) [°C]	deltaT (Mus musculus [13]) [°C]	deltaT (Mus musculus [14]) [°C]	deltaT (Mus musculus [15]) [°C]	deltaT (Mus musculus [16]) [°C]	also measured
COc1ccc2[nH]cc(C3CCN(CCCCn4c(=O)c(-c5ccc(C)cc5)c5ccccn5c4=O)CC3)c2c1	59	223	–	–	–	–	–	–	–	–	–	–	–	–	–	–	–
Br.CCCN(CCC)C1CCc2cccc(O)c2C1 (configuration not stated)	–	–	–	–	–	–	–	–	–	–	–	–	–	–	–	–	Activity (Mus musculus [20]): 57%; Activity (Mus musculus [21]): 45%
COc1ccc2[nH]cc(C3CCN(CCCCn4c(=O)c(-c5ccccc5)c5ccccn5c4=O)CC3)c2c1	52.3	129	–	–	–	–	–	–	–	–	–	–	–	–	–	–	–
COc1ccc2[nH]cc(C3CCN(CCCCn4c(=O)c(-c5ccc(Cl)cc5)c5ccccn5c4=O)CC3)c2c1	41.1	251	–	–	–	–	–	–	–	–	–	–	–	–	–	–	–
COc1ccc(-c2c(=O)n(CCCCN3CCC(c4c[nH]c5ccc(OC)cc45)CC3)c(=O)n3ccccc23)cc1	78	129	–	–	–	–	–	–	–	–	–	–	–	–	–	–	–
COc1ccc2[nH]cc(C3CCN(CCCCn4c(=O)c(-c5ccccc5F)c5ccccn5c4=O)CC3)c2c1	16.7	59.3	–	–	–	–	–	–	–	–	–	–	–	–	–	–	–

The next lines start with results.

Ki [1] [nM]	Ki [2] [nM]	SMILES	deltaT (Mus musculus [3]) [°C]	deltaT (Mus musculus [4]) [°C]	deltaT (Mus musculus [5]) [°C]	deltaT (Mus musculus [6]) [°C]	deltaT (Mus musculus [7]) [°C]	deltaT (Mus musculus [8]) [°C]	deltaT (Mus musculus [9]) [°C]	deltaT (Mus musculus [10]) [°C]	deltaT (Mus musculus [11]) [°C]	deltaT (Mus musculus [12]) [°C]	deltaT (Mus musculus [13]) [°C]	deltaT (Mus musculus [14]) [°C]	deltaT (Mus musculus [15]) [°C]	deltaT (Mus musculus [16]) [°C]	also measured
37.1	280	O=c1c(-c2ccc(Cl)cc2)c2ccccn2c(=O)n1CCCCN1CCC(c2c[nH]c3ccccc23)CC1	-1	-1.2	-0.4	-0.2	-0.1	-0.1	-1.1	-0.4	-0.2	-0.1	-0.4	-0.7	-0.5	-0.4	–
34.6	54.6	COc1ccc2[nH]cc(C3CCN(CCCCn4c(=O)c(-c5ccc(F)cc5)c5ccccn5c4=O)CC3)c2c1	–	–	–	–	–	–	–	–	–	–	–	–	–	–	–
10.9	58.1	O=c1c(-c2ccccc2)c2ccccn2c(=O)n1CCCCN1CCC(c2c[nH]c3ccccc23)CC1	-1.3	-1.2	-0.8	-0.1	-0.4	-0.3	-1.1	-0.4	-0.3	-0.1	-0.5	-1.9	-0.4	-0.5	Activity (Mus musculus [17]; route intraperitoneal): 29%; Activity (Mus musculus [18]): 409; Activity (Mus musculus [19]): 926
5.8	0.3	Cc1ccc(-c2c(=O)n(CCCCN3CCC(c4c[nH]c5ccccc45)CC3)c(=O)n3ccccc23)cc1	-0.8	-1	-0.5	-0.1	-0.3	-0.1	-0.7	-0.1	-0.2	-0.1	0.2	-0.8	-0.4	-0.3	Activity (Mus musculus [22]): inactive; Activity (Mus musculus [17]): inactive
42.1	145	COc1ccc(-c2c(=O)n(CCCCN3CCC(c4c[nH]c5ccccc45)CC3)c(=O)n3ccccc23)cc1	-0.2	-0.3	-0.3	-0.4	-0.3	-0.1	-0.2	-0.6	–	-0.2	-0.6	-0.1	-0.3	–	Activity (Mus musculus [23]): inactive
9.2	37.6	O=c1c(-c2ccc(F)cc2)c2ccccn2c(=O)n1CCCCN1CCC(c2c[nH]c3ccccc23)CC1	-1	-1.2	-1.2	-0.3	-1.2	-1	-0.8	-0.4	–	-0.8	-0.3	-0.6	-0.4	–	deltaT (Mus musculus [24]): -0.8 °C; Activity (Mus musculus [22]; route intraperitoneal): 34%; Activity (Mus musculus [25]): 965; deltaT (Mus musculus [26]): -0.8 °C; Activity (Mus musculus [27]): 376
4.8	0.7	O=c1c(-c2ccccc2F)c2ccccn2c(=O)n1CCCCN1CCC(c2c[nH]c3ccccc23)CC1	-0.8	-1.1	-0.8	-0.1	-0.2	-0.3	-0.7	-0.1	-0.1	-0.1	-0.3	-0.7	-0.5	-0.3	Activity (Mus musculus [28]): Active; Activity (Mus musculus [25]): 399; Activity (Mus musculus [27]): 179; Activity (Mus musculus [17]; route intraperitoneal): 40%; Activity (Mus musculus [29]): Active
